Experimental data reported in PubChem BioAssay (NCI).
Several values for one entry are separate records, joined by “and”; a condition that tells them apart may be missing. Equal values may be shown once.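 Briefly, cells in 96-well plates were exposed to five compound concentrations for 48 h, and endpoints were estimated by linear interpolation. At the GI50, growth is halved. At the TGI there is no net growth.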

Tests used:
Assay in all cases: inhibition of tumour cell growth, NCI panel, 48 h
786-0 renal = tested on: 786-0 renal
A498 renal = tested on: A498 renal
A549 NSCLC = tested on: A549 NSCLC
ACHN renal = tested on: ACHN renal
BT-549 breast = tested on: BT-549 breast
CAKI-1 renal = tested on: CAKI-1 renal
CCRF-CEM leukemia = tested on: CCRF-CEM leukemia
COLO 205 colon = tested on: COLO 205 colon
DU-145 prostate = tested on: DU-145 prostate
EKVX NSCLC = tested on: EKVX NSCLC
HCC-2998 colon = tested on: HCC-2998 colon
HCT-116 colon = tested on: HCT-116 colon
HCT-15 colon = tested on: HCT-15 colon
HL-60(TB) leukemia = tested on: HL-60(TB) leukemia
HOP-62 NSCLC = tested on: HOP-62 NSCLC
HOP-92 NSCLC = tested on: HOP-92 NSCLC
HS 578T breast = tested on: HS 578T breast
HT29 colon = tested on: HT29 colon
IGROV1 ovarian = tested on: IGROV1 ovarian
K-562 leukemia = tested on: K-562 leukemia
KM12 colon = tested on: KM12 colon
LOX IMVI melanoma = tested on: LOX IMVI melanoma
M14 melanoma = tested on: M14 melanoma
MALME-3M melanoma = tested on: MALME-3M melanoma
MCF7 breast = tested on: MCF7 breast
MDA-MB-231 breast = tested on: MDA-MB-231 breast
MDA-MB-435 = tested on: MDA-MB-435
MOLT-4 leukemia = tested on: MOLT-4 leukemia
NCI-H226 lung = tested on: NCI-H226 lung
NCI-H23 lung = tested on: NCI-H23 lung
NCI-H460 lung = tested on: NCI-H460 lung
NCI-H522 lung = tested on: NCI-H522 lung
NCI/ADR-RES ovarian = tested on: NCI/ADR-RES ovarian
OVCAR-3 ovarian = tested on: OVCAR-3 ovarian
OVCAR-4 ovarian = tested on: OVCAR-4 ovarian
OVCAR-5 ovarian = tested on: OVCAR-5 ovarian
OVCAR-8 ovarian = tested on: OVCAR-8 ovarian
PC-3 prostate = tested on: PC-3 prostate
RPMI-8226 leukemia = tested on: RPMI-8226 leukemia
RXF 393 renal = tested on: RXF 393 renal
SF-268 CNS = tested on: SF-268 CNS
SF-295 CNS = tested on: SF-295 CNS
SF-539 CNS = tested on: SF-539 CNS
SK-MEL-2 melanoma = tested on: SK-MEL-2 melanoma
SK-MEL-28 melanoma = tested on: SK-MEL-28 melanoma
SK-MEL-5 melanoma = tested on: SK-MEL-5 melanoma
SK-OV-3 ovarian = tested on: SK-OV-3 ovarian
SN12C renal = tested on: SN12C renal
SNB-19 CNS = tested on: SNB-19 CNS
SNB-75 CNS = tested on: SNB-75 CNS
SR leukemia = tested on: SR leukemia
SW-620 colon = tested on: SW-620 colon
T-47D breast = tested on: T-47D breast
TK-10 renal = tested on: TK-10 renal
U251 CNS = tested on: U251 CNS
UACC-257 melanoma = tested on: UACC-257 melanoma
UACC-62 melanoma = tested on: UACC-62 melanoma
UO-31 renal = tested on: UO-31 renal

With `NS(=O)(=O)c1ccc(N=Cc2c(O)[nH]c3ccc4ncsc4c23)cc1` the GI50 (786-0 renal) was 1.02 µM and 3.67 µM, the TGI (786-0 renal) was > 25 µM and 18.8 µM and the GI50 (A498 renal) was 3.69 µM and 6.71 µM. The TGI (A498 renal) was 9.95 µM and 14.7 µM, the GI50 (A549 NSCLC) was 5.02 µM and 9.11 µM and the TGI (A549 NSCLC) was greater than 25 µM. For the same compound, the GI50 (ACHN renal) was 2.2 µM and 5.31 µM, the TGI (ACHN renal) was greater than 25 µM and the GI50 (BT-549 breast) was 0.693 µM and 2.34 µM. For the same compound, the TGI (BT-549 breast) was 2.06 µM and 9.04 µM, the GI50 (CAKI-1 renal) was 5.85 µM and 6.52 µM and the TGI (CAKI-1 renal) was greater than 25 µM. For the same compound, the GI50 (CCRF-CEM leukemia) was 0.793 µM and 0.699 µM, the TGI (CCRF-CEM leukemia) was greater than 25 µM and the GI50 (COLO 205 colon) was 1.36 µM and 3.84 µM. The TGI (COLO 205 colon) was 5.03 µM and 9.19 µM, the GI50 (DU-145 prostate) was 0.394 µM and 3.03 µM and the TGI (DU-145 prostate) was greater than 25 µM. For the same compound, the GI50 (EKVX NSCLC) was 7.91 µM and 8.52 µM, the TGI (EKVX NSCLC) was greater than 25 µM and the GI50 (HCC-2998 colon) was 0.751 µM and 1.41 µM. The TGI (HCC-2998 colon) was 3.87 µM and 7.05 µM, the GI50 (HCT-116 colon) was 0.845 µM and 1.78 µM and the TGI (HCT-116 colon) was greater than 25 µM. For the same compound, the GI50 (HCT-15 colon) was 7.16 µM and 7.13 µM, the TGI (HCT-15 colon) was > 25 µM and 24.5 µM and the GI50 (HL-60(TB) leukemia) was 1.57 µM and 1.93 µM. The TGI (HL-60(TB) leukemia) was 4.1 µM and 4.79 µM, the GI50 (HOP-62 NSCLC) was 0.887 µM and 3.49 µM and the TGI (HOP-62 NSCLC) was 4.17 µM and 15.1 µM. For the same compound, the GI50 (HOP-92 NSCLC) was 1.72 µM, the TGI (HOP-92 NSCLC) was greater than 7.33 µM and the GI50 (HS 578T breast) was 0.783 µM and 1.04 µM. For the same compound, the TGI (HS 578T breast) was greater than 7.17 µM, the GI50 (HT29 colon) was 3.5 µM and 8.16 µM and the TGI (HT29 colon) was greater than 25 µM. For the same compound, the GI50 (IGROV1 ovarian) was 6.53 µM and 8.83 µM, the TGI (IGROV1 ovarian) was greater than 25 µM and the GI50 (K-562 leukemia) was 1.27 µM and 2.19 µM. The TGI (K-562 leukemia) was greater than 25 µM, the GI50 (KM12 colon) was 0.566 µM and 1.97 µM and the TGI (KM12 colon) was 8.58 µM and 18.4 µM. The GI50 (LOX IMVI melanoma) was 0.85 µM and 2.13 µM, the TGI (LOX IMVI melanoma) was greater than 25 µM and the GI50 (M14 melanoma) was 2.08 µM and 4.14 µM. The TGI (M14 melanoma) was 6.99 µM and 9.39 µM, the GI50 (MALME-3M melanoma) was 1.44 µM and 2.27 µM and the TGI (MALME-3M melanoma) was 10.7 µM and > 19 µM. For the same compound, the GI50 (MCF7 breast) was 0.755 µM and 1.77 µM, the TGI (MCF7 breast) was greater than 24 µM and the GI50 (MDA-MB-231 breast) was 1.06 µM and 5.66 µM. For the same compound, the TGI (MDA-MB-231 breast) was greater than 25 µM, the GI50 (MDA-MB-435) was 2.44 µM and 3.76 µM and the TGI (MDA-MB-435) was > 19.5 µM and 18.4 µM. The GI50 (MOLT-4 leukemia) was 0.476 µM and 0.886 µM, the TGI (MOLT-4 leukemia) was 1.57 µM and 4.26 µM and the GI50 (NCI-H226 lung) was 0.931 µM and 2.94 µM. The TGI (NCI-H226 lung) was 6.26 µM and 15.5 µM, the GI50 (NCI-H23 lung) was 1.11 µM and 3.98 µM and the TGI (NCI-H23 lung) was 7.24 µM and 15.7 µM. For the same compound, the GI50 (NCI-H460 lung) was 0.764 µM and 5.92 µM, the TGI (NCI-H460 lung) was greater than 25 µM and the GI50 (NCI-H522 lung) was 0.508 µM and 0.532 µM. The TGI (NCI-H522 lung) was 1.58 µM and 1.88 µM, the GI50 (NCI/ADR-RES ovarian) was 3.5 µM and 5.42 µM and the TGI (NCI/ADR-RES ovarian) was greater than 25 µM. The GI50 (OVCAR-3 ovarian) was 0.189 µM and 0.756 µM, the TGI (OVCAR-3 ovarian) was > 6.36 µM and 3.42 µM and the GI50 (OVCAR-4 ovarian) was 0.821 µM and 1.87 µM. The TGI (OVCAR-4 ovarian) was 2.92 µM and 16.1 µM, the GI50 (OVCAR-5 ovarian) was 2.91 µM and 7.56 µM and the TGI (OVCAR-5 ovarian) was greater than 25 µM. For the same compound, the GI50 (OVCAR-8 ovarian) was 0.75 µM and 1.73 µM, the TGI (OVCAR-8 ovarian) was greater than 25 µM and the GI50 (PC-3 prostate) was 3.1 µM and 2.08 µM. For the same compound, the TGI (PC-3 prostate) was greater than 22.9 µM, the GI50 (RPMI-8226 leukemia) was 5.6 µM and 7.17 µM and the TGI (RPMI-8226 leukemia) was greater than 21.2 µM. For the same compound, the GI50 (RXF 393 renal) was 0.856 µM and 2.12 µM, the TGI (RXF 393 renal) was 2.47 µM and 7.85 µM and the GI50 (SF-268 CNS) was 0.678 µM and 0.792 µM. The TGI (SF-268 CNS) was 2.28 µM and 2.72 µM, the GI50 (SF-295 CNS) was 4.02 µM and 7.28 µM and the TGI (SF-295 CNS) was greater than 23.2 µM. The GI50 (SF-539 CNS) was 0.626 µM and 1.08 µM, the TGI (SF-539 CNS) was 2 µM and 4.91 µM and the GI50 (SK-MEL-2 melanoma) was 0.644 µM and 1.15 µM. The TGI (SK-MEL-2 melanoma) was 1.36 µM and 3.07 µM, the GI50 (SK-MEL-28 melanoma) was 0.858 µM and 2.49 µM and the TGI (SK-MEL-28 melanoma) was 2.55 µM and 10.9 µM. The GI50 (SK-MEL-5 melanoma) was 1.04 µM and 2.74 µM, the TGI (SK-MEL-5 melanoma) was > 10.5 µM and 15.3 µM and the GI50 (SK-OV-3 ovarian) was 3.84 µM and 9.75 µM. The TGI (SK-OV-3 ovarian) was greater than 25 µM, the GI50 (SN12C renal) was 0.982 µM and 3.21 µM and the TGI (SN12C renal) was greater than 25 µM. For the same compound, the GI50 (SNB-19 CNS) was 0.885 µM and 2.16 µM, the TGI (SNB-19 CNS) was greater than 25 µM and the GI50 (SNB-75 CNS) was 0.857 µM and 3.64 µM. The TGI (SNB-75 CNS) was 2.61 µM and 10 µM, the GI50 (SR leukemia) was 0.213 µM and 0.518 µM and the TGI (SR leukemia) was > 5.71 µM and 2.11 µM. The GI50 (SW-620 colon) was 0.891 µM and 1.8 µM, the TGI (SW-620 colon) was greater than 21.9 µM and the GI50 (T-47D breast) was 0.781 µM and 2.36 µM. For the same compound, the TGI (T-47D breast) was 2.16 µM and > 20 µM, the GI50 (TK-10 renal) was 4.2 µM and 7.65 µM and the TGI (TK-10 renal) was 17.1 µM and 19.1 µM. The GI50 (U251 CNS) was 0.715 µM and 1.63 µM, the TGI (U251 CNS) was greater than 8.07 µM and the GI50 (UACC-257 melanoma) was 3.11 µM and 6.09 µM. For the same compound, the TGI (UACC-257 melanoma) was 19 µM and 16.6 µM, the GI50 (UACC-62 melanoma) was 1.05 µM and 3.67 µM and the TGI (UACC-62 melanoma) was 4.71 µM and 9.09 µM. For the same compound, the GI50 (UO-31 renal) was 4.51 µM and 6.2 µM and the TGI (UO-31 renal) was greater than 21.3 µM.
